This note sets out measurements from a melting point compilation (Tetko et al.; mined from patent text by program, amines drawn as free bases though some values may be those of a salt).

A word on the melting point: it is the temperature, or range, at which the solid turns liquid. Turning to `CCCOc1ccccc1-c1ncc(C(=O)NC)c(=O)[nH]1`, the melting point fell in the range of 190 to 191 °C.

In turn, `Nc1cc(C(=O)NC2CCC2)n[nH]1` had a melting point of 147 °C.

`NCCc1nc(Cl)ccc1C(=O)O` registered a melting point of 158 to 160 °C.

In turn, `COc1cc(C=C(C=O)C(C=O)=Cc2ccc(OC(C)C)c(OC)c2)ccc1OC(C)C` came in with a melting point of 119 to 120 °C.

For `Nc1ccc(S(F)(F)(F)(F)F)cc1`, the melting point lay within 63 to 65 °C.

Consider `FC(F)(F)c1n[nH]c(Cl)c1Cl`, for which the melting point is 58 to 60 °C.

`NS(=O)(=O)c1cc(CCNC(=O)/C=C/c2cccs2)ccc1OCCOC(F)(F)F`: the melting point is 203 to 205 °C.

For `COC(=O)c1ccc([N+](=O)[O-])[nH]1`, the melting point lay in the range of 178 to 179 °C.

On to `O=C1CC(c2ccccc2)c2cc(C(=O)c3ccc(Cl)cc3)ccc2N1` (stereo not given), for which the melting point turned out to be 204 °C.

With `Nc1cc([N+](=O)[O-])c(N)cc1Cl`, the melting point was determined as 157 °C.

For `CCn1cc(C(=O)NCc2ccc(Cl)cc2)c(=O)c2cc(CCCCO)sc21`, the melting point lay in the range of 136 to 139 °C.

Take `CN1C(=O)C(c2ccc(OC(F)F)cc2)(C2CCCCC2)N=C1N` (stereo not given): the melting point fell in the range of 178 to 180 °C.

As to `Cc1ccc2c(=O)[nH]sc2n1`, the melting point is 187 to 190 °C.

With `CC(O)(CO)c1cccc(OCc2ccc3ccccc3c2)c1` (single isomer, unassigned; (-)), the melting point lay within 104 to 106 °C.

Compound `O=C(O)CCCCCNC(=O)C1Cc2ccccc2N1S(=O)(=O)c1ccc(-c2cccc(C(F)(F)F)c2)cc1` (stereo not given) came in with a melting point of 50 °C.

`CCOC(=O)C(SC)c1ccccc1NC` (stereo not given) showed a melting point of 87.5 to 88.5 °C.

On to `CCCN(CCC)Cc1noc(-c2ncn3c2[C@@H]2CCCN2C(=O)c2c(Cl)cccc2-3)n1`, for which the melting point fell in the range of 155 to 158 °C.

Consider `Cc1c(Cl)ccc(C(=O)O)c1Cl`, for which the melting point lay within 173 to 175 °C.

`Cc1ccc(-c2cn(-c3ccc4c(c3)c3ccccc3n4C)c(-c3ccc(C)s3)n2)s1` yielded a melting point of 248 to 255 °C.

In the case of `O=C(O)CCOc1cccc(/C=C/c2nc3ccccc3s2)c1`, the melting point fell in the range of 177 to 178 °C.

Turning to `Cc1cc(SC2=C(O)CC(CCc3ccc(O)cc3)(C3CCCC3)OC2=O)c(C(C)(C)C)cc1OCCO` (stereo not given), the melting point was 113 to 115 °C.

As for `COc1ccc2c(c1)OC(C)(C)C(NC(=O)c1cc(F)ccc1OC)C2=O` (stereo not given), the melting point fell in the range of 143 to 144 °C.

`O=C1N(Cc2noc(C3CC3)n2)c2cccc(Cl)c2C12COc1cc3c(cc12)OCO3` (stereo not given) registered a melting point of 180 to 182 °C.

`CC(C(N)=O)c1ccc2c(c1)CCc1ccccc1C2=O` (stereo not given) showed a melting point of 175 °C.

For the compound `COc1c(C=CC(=O)O)cccc1Oc1ccccc1C`, the melting point lay within 143 to 146 °C.

As to `CCCN1CCCN(c2ccccc2)c2cc(Cl)ccc21`, the melting point fell in the range of 192 to 194 °C.

For the compound `CC(=O)Oc1cc(C)cc(C(=O)N[C@@H](Cc2ccccc2)[C@H](O)C(=O)O)c1C`, the melting point fell in the range of 220 to 224 °C.

In turn, `Cc1cc([N+](=O)[O-])c(O)cc1Cl` came in with a melting point of 70 to 71 °C.

`COc1ccc2c(c1)Sc1nccnc1N2`: the melting point lay in the range of 210 to 211 °C.

In the case of `C=C[C@H]1CN(c2c(F)cc3c(=O)c(C(=O)O)cn4c3c2OC[C@@H]4C)C[C@H]1N`, the melting point was 238 to 240 °C.

`COC(=O)c1cc(CN=[N+]=[N-])cc([N+](=O)[O-])c1` showed a melting point of 44 to 46 °C.

In turn, `O=C(O)C(O)(C(F)F)C(F)F` yielded a melting point of 72.5 to 73.5 °C.

`CCOC(=O)c1cn(Cc2ccc(Oc3ccccc3)cc2)nc1O` showed a melting point of 117 to 118 °C.

In turn, `CC(C)C(=O)c1cn(Cc2c(F)cccc2F)c2sc(-c3ccc(NC(=O)C(C)(C)O)cc3)c(CN(C)Cc3ccccc3)c2c1=O` showed a melting point of 178 to 180 °C.

Regarding `O=C1Cn2c(cc3ccccc32)C(=O)N1CCCCN1CCN(c2ncccn2)CC1`, the melting point was in the range of 237 to 239 °C.

The compound `Cn1cnc(S(=O)(=O)Nc2ccc(OCCN3CCN(c4nsc5ccccc45)CC3)cc2)c1` had a melting point of 176 °C.

In turn, `N#Cc1ccc(Cn2cncc2CCOc2ccc3c(c2CCc2ccccc2)CCCC3=O)cc1` showed a melting point of 179 to 180 °C.

With `Cn1cc(C2=C(c3c4n(c5ccccc35)CCN(C(=O)Oc3ccccc3)C4)C(=O)NC2=O)c2ccccc21`, the melting point was in the range of 160 to 165 °C.

With `Cn1cncc1-c1nc(-c2cccc(Cl)c2)c2cc(C(O)(c3ccc(Cl)cc3)c3cncn3C)ccc2n1` (stereo not given), the melting point worked out at 160 °C.

`CCCCCCCCCCCC(=O)N[C@@H](CC(C)C)C(=O)N[C@@H](C(C)C)[C@@H](O)c1c(-c2ccccc2)c1=O` registered a melting point of 123 to 127 °C.

In the case of `COc1cc(Nc2nccc(-c3ccc(NCCN(C)C)nc3)n2)cc(OC)c1OC`, the melting point was in the range of 110 to 111 °C.

The compound `CC(C)OP(=O)(OC(C)C)C(Nc1ccccn1)P(=O)(OC(C)C)OC(C)C` gave a melting point of 98 to 100 °C.

`Clc1cccc(Nc2ncnc3[nH]c(CN4CCOCC4)cc23)c1` gave a melting point of 244 to 246 °C.

With `CC(c1oc2ccccc2c(=O)c1-c1cccc(F)c1)n1nc(-c2ccc(O)cc2)c2c(N)ncnc21` (stereo not given), the melting point lay in the range of 244 to 247 °C.

Compound `O=C(c1ccccc1)C1CCCc2cccnc21` (stereo not given) returned a melting point of 205 to 207 °C.

The compound `N#CC(=C=Nc1nc2ccccc2[nH]1)C#N` gave a melting point of 340 to 345 °C.

Compound `COC(=O)C1Cc2c(ncn2Cc2ccc(N)c(C)c2)CN1C(=O)C(c1ccccc1)c1ccccc1` (stereo not given) yielded a melting point of 182 to 188 °C.

As for `Cn1cnc(COc2nn3c(-c4ccccc4)nnc3cc2-c2ccco2)n1`, the melting point lay in the range of 257 to 259 °C.

The compound `NC(=O)c1nc(-c2cccc(O)c2)nc2c1[nH]c(=O)n2Cc1ccccc1` returned a melting point of 362 to 366 °C.

As to `O=C(c1cccc(F)c1)N1Cc2c(-c3ccc(F)cc3)ncn2-c2ccccc21`, the melting point lay within 176 to 177 °C.

Turning to `Cc1c(-c2ccc3sc(=O)[nH]c3c2)nc2ncccn12`, the melting point was more than 290 °C.

Consider `CCN(CC)C(=O)c1nc(C)n2c1CN=C(c1ccccc1F)c1cc(Cl)ccc1-2`, for which the melting point fell in the range of 182 to 188 °C.

`NC(=O)OC(=O)[C@@H]1Cc2ccccc2CN1C(=O)OCc1ccccc1` gave a melting point of 136 to 138 °C.

The compound `CCCCCCc1c(C(C)C)nc(C(C)C)c(CO)c1-c1ccccc1` registered a melting point of 71 to 72 °C.

`Cc1cc(C)c2cccc(Cl)c2n1` had a melting point of 66 to 68 °C.

Compound `CCOC(=O)C(C)(C)n1c(=O)[nH]c2ccc(Cl)cc2c1=O` gave a melting point of 179 to 180 °C.

`BrCc1cccc(OCCCCOc2ccccc2)c1` registered a melting point of 47 to 49 °C.

Take `Fc1ccc2nc[nH]c2c1`: the melting point fell in the range of 194 to 196 °C.

In turn, `CC(CCc1cc2cccnc2n(-c2cccc(N(C)C)c2)c1=O)c1ccncc1` (stereo not given) had a melting point of 148 to 154 °C.

`O=c1[nH]c2cc(Cl)ccc2n1C1CCN(Cc2ccnc(-c3ccc(Cl)cc3)c2)CC1` displayed a melting point of 186 to 188 °C.

In the case of `O=c1[nH]c(-c2ccccc2)c(-c2ccccc2)o1`, the melting point lay in the range of 158 to 159 °C.

As to `COC1C=C(Br)C(=O)CO1` (stereo not given), the melting point lay in the range of 74 to 75 °C.

`NS(=O)(=O)c1cc2c(s1)S(=O)(=O)CC(=S)N2` registered a melting point of 219 to 221 °C.

Turning to `CCCC(=O)OC(C)OC(=O)Nc1ccc(Cl)cc1` (stereo not given), the melting point was 52 to 54 °C.

The compound `NC(=O)c1ccc(OCC2CO2)c(I)c1` (stereo not given) gave a melting point of 149 to 151 °C.
